Activity calls are given as the source filed them.
Tests used:
[1] = target: T1, RNA-binding protein pos-1 (Caenorhabditis elegans, UniProt G5EF15); assay: inhibitors of POS-1/mex-3 RNA binding, dose response, biochemical, fluorescence polarization (AID 1964);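 also: purified POS-1 fused to maltose binding protein made in E. coli; potency of compounds blocking POS-1 binding to fluorescent RNA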
T1 sequence (G5EF15 whole entry): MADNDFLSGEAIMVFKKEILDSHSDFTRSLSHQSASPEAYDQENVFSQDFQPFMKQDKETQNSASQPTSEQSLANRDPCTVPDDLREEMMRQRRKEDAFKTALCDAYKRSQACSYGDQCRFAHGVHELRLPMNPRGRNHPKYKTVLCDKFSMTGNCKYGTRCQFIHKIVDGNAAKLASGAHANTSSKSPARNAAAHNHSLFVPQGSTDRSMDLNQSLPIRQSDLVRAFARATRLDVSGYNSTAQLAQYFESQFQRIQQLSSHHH

Mu-type opioid receptor = Mu-type opioid receptor (Homo sapiens, UniProt P35372); assay: (§1) Counterscreen for agonists of heterodimerization of the mu 1 (OPRM1) and delta 1 (OPRD1) opioid receptors: Luminescence-based cell-based high throughput dose response assay to identify agonists of OPRM1 homodimerization.; assay type: functional
[2] = target: 5-hydroxytryptamine receptor 5A (Homo sapiens, UniProt P47898); assay: Counterscreen for agonists of OPRM1-OPRD1 heterodimerization: luminescence-based cell-based high throughput dose response assay to identify agonists of 5-hydroxytryptamine (serotonin) 5A receptor (HTR5A). [Related pubchem assays (depositor defined):AID504326, AID504355, AID504692, AID504904, AID504905]; assay type: functional
[3] = target: Delta-type opioid receptor (Homo sapiens, UniProt P41143); assay: as §1, with “of OPRD1” for “of OPRM1”, “homodimerization. [Related pubchem assays (depositor defined):AID504326, AID504355, AID504692, AID504904, AID504905]” for “homodimerization.”; assay type: functional
Apelin receptor = Apelin receptor (Homo sapiens, UniProt P35414); assay: APJ beta-arrestin recruitment antagonism, SAR follow-up, selectivity assay for CCR6 antagonist project, cell-based, luminescent, enzyme-fragment complementation (AID 588359); assay type: functional
[4] = target: T2, Zinc finger protein mex-5 (Caenorhabditis elegans, UniProt Q9XUB2); assay: MEX-5/TCR-2 RNA interaction inhibitors, dose response, biochemical, C. elegans, fluorescence polarization (AID 1960)
T2 sequence (Q9XUB2 whole entry): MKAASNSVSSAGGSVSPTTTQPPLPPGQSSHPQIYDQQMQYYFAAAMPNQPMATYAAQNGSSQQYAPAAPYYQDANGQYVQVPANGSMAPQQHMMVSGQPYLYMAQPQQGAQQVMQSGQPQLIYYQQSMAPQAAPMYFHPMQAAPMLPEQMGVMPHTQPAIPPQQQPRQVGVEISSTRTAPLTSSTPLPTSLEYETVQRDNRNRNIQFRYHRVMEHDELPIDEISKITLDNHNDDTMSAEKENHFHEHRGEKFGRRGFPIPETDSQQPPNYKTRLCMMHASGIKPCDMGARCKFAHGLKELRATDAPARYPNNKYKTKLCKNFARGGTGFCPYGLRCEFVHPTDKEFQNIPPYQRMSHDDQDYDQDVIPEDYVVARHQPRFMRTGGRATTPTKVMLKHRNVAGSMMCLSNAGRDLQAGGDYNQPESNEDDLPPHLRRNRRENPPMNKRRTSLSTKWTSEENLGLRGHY

[5] = target: T3, Ubiquitin-conjugating enzyme E2 N (Homo sapiens, UniProt P61088); assay type: functional;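 also: Dose-response confirmation in a TR-FRET assay detecting UBC13-driven polyubiquitin chain formation, inhibition measured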
T3 sequence (P61088 whole entry): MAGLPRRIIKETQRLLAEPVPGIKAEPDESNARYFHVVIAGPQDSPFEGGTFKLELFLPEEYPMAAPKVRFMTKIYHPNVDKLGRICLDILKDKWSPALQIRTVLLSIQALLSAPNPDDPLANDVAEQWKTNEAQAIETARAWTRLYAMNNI

Beta-galactosidase = Beta-galactosidase (Escherichia coli, UniProt Q8VNN2); assay: beta-galactosidase enzyme inhibitors and activators, dose response, artefact control for CCR6 antagonist project, biochemical, E. coli enzyme, set 3 (AID 504712); assay type: functional
[6] = target: T4, Short transient receptor potential channel 4 (Mus musculus, UniProt Q9QUQ5); assay: mouse TRPC4 channel activators, dose response, cell-based, HEK293 TRPC4/mu-opioid, Fluo-4 calcium (AID 434937); assay type: functional
T4 sequence (Q9QUQ5 whole entry): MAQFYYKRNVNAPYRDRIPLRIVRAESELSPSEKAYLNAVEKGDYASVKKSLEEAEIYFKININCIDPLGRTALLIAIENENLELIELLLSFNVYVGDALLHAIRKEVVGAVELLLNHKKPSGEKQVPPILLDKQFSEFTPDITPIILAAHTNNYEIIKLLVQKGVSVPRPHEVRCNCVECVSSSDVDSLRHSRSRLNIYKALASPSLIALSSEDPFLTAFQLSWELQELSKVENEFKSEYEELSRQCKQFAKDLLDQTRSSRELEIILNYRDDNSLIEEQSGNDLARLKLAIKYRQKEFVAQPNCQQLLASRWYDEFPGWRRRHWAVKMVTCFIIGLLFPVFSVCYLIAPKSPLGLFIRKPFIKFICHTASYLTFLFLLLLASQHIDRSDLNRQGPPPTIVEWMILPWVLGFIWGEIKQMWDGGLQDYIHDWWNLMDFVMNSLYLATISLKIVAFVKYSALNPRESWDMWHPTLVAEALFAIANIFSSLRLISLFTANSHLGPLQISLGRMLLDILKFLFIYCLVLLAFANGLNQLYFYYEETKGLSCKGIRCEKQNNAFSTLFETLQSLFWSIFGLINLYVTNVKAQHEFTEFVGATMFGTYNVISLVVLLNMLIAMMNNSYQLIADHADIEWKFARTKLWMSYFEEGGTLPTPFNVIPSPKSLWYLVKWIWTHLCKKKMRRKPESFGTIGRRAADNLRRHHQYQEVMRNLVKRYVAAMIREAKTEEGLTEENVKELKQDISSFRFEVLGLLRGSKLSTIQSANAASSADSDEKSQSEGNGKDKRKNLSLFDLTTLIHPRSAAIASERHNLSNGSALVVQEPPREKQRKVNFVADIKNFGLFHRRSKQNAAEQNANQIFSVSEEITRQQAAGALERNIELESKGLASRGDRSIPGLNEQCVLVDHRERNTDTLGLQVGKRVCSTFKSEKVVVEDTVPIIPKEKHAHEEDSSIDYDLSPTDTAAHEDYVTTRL

Escherichia coli = assay: microbe, parasite or virus in culture
[7] = target: T5, Rac GTPase-activating protein 1 (Homo sapiens, UniProt Q9H0H5); assay: MgcRacGAP GTPase-activating activity inhibitors, confirmation, biochemical, ADP Hunter fluorescence, primary and confirmatory (AID 624330); assay type: functional
T5 sequence (Q9H0H5 whole entry): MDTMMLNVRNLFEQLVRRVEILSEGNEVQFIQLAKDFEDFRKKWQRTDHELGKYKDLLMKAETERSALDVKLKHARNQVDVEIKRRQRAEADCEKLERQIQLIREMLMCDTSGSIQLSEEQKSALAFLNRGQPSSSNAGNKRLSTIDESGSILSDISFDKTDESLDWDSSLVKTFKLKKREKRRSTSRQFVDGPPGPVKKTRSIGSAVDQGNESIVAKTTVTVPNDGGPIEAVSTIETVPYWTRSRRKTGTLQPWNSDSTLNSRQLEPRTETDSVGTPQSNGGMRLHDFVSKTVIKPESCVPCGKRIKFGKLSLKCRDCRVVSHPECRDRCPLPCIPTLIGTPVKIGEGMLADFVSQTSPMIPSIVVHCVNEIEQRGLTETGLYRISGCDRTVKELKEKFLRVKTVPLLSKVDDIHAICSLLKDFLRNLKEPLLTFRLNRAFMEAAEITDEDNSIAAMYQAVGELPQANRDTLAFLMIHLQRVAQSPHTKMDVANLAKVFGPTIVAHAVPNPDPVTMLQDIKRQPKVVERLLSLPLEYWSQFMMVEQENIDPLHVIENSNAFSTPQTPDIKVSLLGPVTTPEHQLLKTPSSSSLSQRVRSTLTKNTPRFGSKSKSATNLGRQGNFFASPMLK

[8] = target: Luciferin 4-monooxygenase (Photinus pyralis, UniProt P08659); assay: firefly luciferase enzyme inhibitors, dose response, biochemical, luminescence (AID 1891)
[9] = Luminescence Cell-Based Dose Confirmation HTS to Identify Inhibitors of Platelet Dense Granule Release. [Related pubchem assays: 1663 (Primary HTS), 1678 (Summary of Project)]; assay type: functional
HeLa = assay: HeLa cell cytotoxicity, dose response, cytotoxicity control for MITF activator project, CellTiter-Glo luminescence, cherry-pick samples (AID 540259); assay type: functional, cell-based; conditions: Homo sapiens

Beta-galactosidase, sequence (Q8VNN2 whole entry): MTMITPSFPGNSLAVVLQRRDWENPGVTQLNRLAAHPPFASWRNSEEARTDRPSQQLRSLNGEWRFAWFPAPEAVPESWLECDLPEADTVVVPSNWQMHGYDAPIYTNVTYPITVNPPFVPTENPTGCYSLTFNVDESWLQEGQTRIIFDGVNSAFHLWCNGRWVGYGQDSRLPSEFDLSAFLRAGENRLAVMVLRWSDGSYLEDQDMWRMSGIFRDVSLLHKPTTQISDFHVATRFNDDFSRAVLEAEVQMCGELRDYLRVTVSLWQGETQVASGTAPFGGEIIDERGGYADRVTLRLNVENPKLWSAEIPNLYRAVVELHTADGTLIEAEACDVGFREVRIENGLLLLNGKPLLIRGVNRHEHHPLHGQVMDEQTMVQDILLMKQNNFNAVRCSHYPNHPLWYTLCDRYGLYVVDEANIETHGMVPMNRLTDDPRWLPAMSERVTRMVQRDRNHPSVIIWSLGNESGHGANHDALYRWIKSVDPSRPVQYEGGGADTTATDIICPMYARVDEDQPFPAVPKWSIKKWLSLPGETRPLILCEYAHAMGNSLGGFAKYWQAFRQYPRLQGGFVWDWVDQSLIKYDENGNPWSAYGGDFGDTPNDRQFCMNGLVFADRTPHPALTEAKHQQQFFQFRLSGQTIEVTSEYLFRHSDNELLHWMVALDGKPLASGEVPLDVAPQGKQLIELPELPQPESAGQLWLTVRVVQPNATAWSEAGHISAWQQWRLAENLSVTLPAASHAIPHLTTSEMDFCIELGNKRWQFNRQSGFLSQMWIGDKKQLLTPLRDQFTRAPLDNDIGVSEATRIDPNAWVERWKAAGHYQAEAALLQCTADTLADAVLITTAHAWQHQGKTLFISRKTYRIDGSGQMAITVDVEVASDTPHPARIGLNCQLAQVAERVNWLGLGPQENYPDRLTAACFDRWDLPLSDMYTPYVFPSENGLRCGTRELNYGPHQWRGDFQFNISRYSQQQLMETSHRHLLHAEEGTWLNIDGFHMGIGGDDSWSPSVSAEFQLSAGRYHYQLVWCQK
Apelin receptor, sequence (P35414 whole entry, the tested form may be a part): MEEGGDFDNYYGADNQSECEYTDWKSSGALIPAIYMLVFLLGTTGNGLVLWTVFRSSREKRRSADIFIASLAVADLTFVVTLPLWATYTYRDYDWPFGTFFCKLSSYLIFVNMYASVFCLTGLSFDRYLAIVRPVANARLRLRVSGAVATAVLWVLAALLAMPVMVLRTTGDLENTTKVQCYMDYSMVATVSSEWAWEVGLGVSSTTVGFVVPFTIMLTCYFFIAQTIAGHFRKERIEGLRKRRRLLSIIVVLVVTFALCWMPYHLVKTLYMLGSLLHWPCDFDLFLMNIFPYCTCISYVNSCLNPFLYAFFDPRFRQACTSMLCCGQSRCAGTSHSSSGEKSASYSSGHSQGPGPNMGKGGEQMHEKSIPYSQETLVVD
Delta-type opioid receptor, sequence (P41143 whole entry, the tested form may be a part): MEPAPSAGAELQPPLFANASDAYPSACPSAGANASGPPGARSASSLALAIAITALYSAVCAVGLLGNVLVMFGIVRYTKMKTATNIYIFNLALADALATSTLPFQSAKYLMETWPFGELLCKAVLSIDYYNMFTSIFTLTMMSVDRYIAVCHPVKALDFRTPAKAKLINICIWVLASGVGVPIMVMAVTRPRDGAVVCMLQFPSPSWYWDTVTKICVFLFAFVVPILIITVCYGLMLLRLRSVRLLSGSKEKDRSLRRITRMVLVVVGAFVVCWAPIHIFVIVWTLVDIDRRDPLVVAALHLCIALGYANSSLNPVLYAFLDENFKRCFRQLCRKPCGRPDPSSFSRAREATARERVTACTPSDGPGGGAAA
5-hydroxytryptamine receptor 5A, sequence (P47898 whole entry): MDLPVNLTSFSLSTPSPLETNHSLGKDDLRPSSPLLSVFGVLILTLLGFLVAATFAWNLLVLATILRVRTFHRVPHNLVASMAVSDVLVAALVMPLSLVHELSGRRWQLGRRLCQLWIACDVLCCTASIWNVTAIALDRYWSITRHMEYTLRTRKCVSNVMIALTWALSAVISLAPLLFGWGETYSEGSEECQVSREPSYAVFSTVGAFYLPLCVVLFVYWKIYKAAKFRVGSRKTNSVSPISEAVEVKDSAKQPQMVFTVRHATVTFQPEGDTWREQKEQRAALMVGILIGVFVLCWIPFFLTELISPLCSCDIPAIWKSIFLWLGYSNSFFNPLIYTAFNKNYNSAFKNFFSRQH
Mu-type opioid receptor, sequence (P35372 whole entry): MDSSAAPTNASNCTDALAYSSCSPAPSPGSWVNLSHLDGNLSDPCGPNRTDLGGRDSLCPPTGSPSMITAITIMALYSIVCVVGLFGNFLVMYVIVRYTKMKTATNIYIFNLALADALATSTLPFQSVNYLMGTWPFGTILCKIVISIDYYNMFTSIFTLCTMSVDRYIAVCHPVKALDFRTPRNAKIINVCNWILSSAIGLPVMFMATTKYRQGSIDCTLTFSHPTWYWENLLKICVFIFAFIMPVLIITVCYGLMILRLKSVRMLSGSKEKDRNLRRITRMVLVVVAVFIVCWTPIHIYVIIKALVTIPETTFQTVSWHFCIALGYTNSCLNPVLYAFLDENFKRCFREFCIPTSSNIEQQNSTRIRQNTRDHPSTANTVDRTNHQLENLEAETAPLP
Luciferin 4-monooxygenase, sequence (P08659 whole entry): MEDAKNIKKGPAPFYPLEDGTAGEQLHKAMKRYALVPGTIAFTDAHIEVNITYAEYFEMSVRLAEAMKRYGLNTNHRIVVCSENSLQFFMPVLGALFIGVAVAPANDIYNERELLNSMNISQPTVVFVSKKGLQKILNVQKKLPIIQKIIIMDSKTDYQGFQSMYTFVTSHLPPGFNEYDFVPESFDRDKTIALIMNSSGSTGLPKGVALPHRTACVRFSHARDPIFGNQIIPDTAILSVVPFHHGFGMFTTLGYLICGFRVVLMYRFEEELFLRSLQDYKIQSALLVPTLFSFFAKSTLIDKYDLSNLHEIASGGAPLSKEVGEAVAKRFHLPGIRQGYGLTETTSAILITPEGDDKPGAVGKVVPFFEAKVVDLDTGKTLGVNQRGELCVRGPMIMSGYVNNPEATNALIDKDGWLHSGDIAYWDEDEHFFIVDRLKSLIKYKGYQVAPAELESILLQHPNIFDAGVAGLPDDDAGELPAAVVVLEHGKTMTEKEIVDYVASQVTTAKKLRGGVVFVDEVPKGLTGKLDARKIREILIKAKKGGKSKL

Row | Compound | EC50 [1] | EC50 (Mu-type opioid receptor) | EC50 [2] | EC50 [3] | IC50 (Apelin receptor) | EC50 [4] | IC50 [5] | IC50 (Beta-galactosidase) | EC50 [6] | AC50 (Escherichia coli) | IC50 [7] | EC50 [8] | EC50 [9] | AC50 (HeLa)
1 | COCCCn1c(N)c(-c2nc3ccccc3n2C)c2nc3ccccc3nc21 | 40.4 µM (active) | > 92.5 µM (inactive) | > 92.5 µM (inactive) | > 92.5 µM (inactive) | 19.3 µM (active) | 40.6 µM (active) | > 20 µM (inactive) | > 66.6 µM (inactive) | 2.66 µM (active) |  |  |  |  | 
2 | COc1ccc(/C=N/Nc2ccccn2)cc1O |  |  |  |  |  |  |  |  |  | 31.1 µM (active) | 70.2 µM (active) | 17.6 µM (active) | 12.5 µM (active) | 282 µM (active)
